In patent US20220306695A1, “COMPSTATIN ANALOGUES AND THEIR MEDICAL USES” (priority 2019, published 2022):
Positions of bridges follow the written chain, without caps; N, C: chain ends. Non-standard residues stand in square brackets, D forms with d. Residues, ends and D or L forms follow the SMILES beside them. 2Nal = N[C@@H](Cc1ccc2ccccc2c1)C(=O)O; Sar = CNCC(=O)O

Key:
[1] = tested on: classical complement pathway; assay: In vitro haemolysis assay (inhibition of classical complement pathway); assay type: cell-based, human; conditions: Table 3; human serum, sensitized sheep red blood cells; read-out: IC50[nM], in vitro analysis of inhibition of hemolysis
Outline: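 Serially diluted compound (9 points) was preincubated 15 min at room temperature with diluted human serum, titrated per batch to give 70-90% maximal haemolysis, in Tris/casein buffer pH 7.4 with Mg2+/Ca2+. Antibody-sensitized sheep erythrocytes were then added for 30 min at 37° C, and the reaction was stopped with EDTA. Haemolysis was read at A405, with IC50 from 4PL fit.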

[2] = Solubility test at 10 mg/mL (visual inspection and light scattering); assay type: physicochemical; conditions: for Solubility, Condition 1 Acetate pH 4: 10 mg/mL compound in 100 mM acetate pH 4; for Solubility, Condition 2 Acetate pH 5: 10 mg/mL compound in 100 mM acetate pH 5; for Solubility, Condition 3 Phosphate pH 6: 10 mg/mL compound in 100 mM phosphate pH 6; for Solubility, Condition 4 Phosphate pH 7: 10 mg/mL compound in 100 mM phosphate pH 7; for Solubility, Condition 5 Phosphate pH 7.5: 10 mg/mL compound in 100 mM phosphate pH 7.5

Compound	IC50 [1] [nM]	Solubility, Condition 1 Acetate pH 4 [2]	Solubility, Condition 2 Acetate pH 5 [2]	Solubility, Condition 3 Phosphate pH 6 [2]	Solubility, Condition 4 Phosphate pH 7 [2]	Solubility, Condition 5 Phosphate pH 7.5 [2]
CC[C@H](C)[C@@H]1NC(=O)[C@@H](NC(=O)[C@@H](NC(=O)[C@H](CCC(=O)O)NC(=O)CNC(=O)[C@H](CCC(=O)O)NC(C)=O)[C@@H](C)CC)CSSC[C@@H](C(=O)N[C@H](C(N)=O)[C@@H](C)O)NC(=O)[C@H](CCCNC(=N)N)NC(=O)[C@H](Cc2c[nH]cn2)NC(=O)[C@H](CCC(=O)O)NC(=O)CNC(=O)[C@H](Cc2c[nH]c3ccccc23)NC(=O)[C@H](CC(=O)O)NC(=O)[C@H](CCC(N)=O)NC(=O)[C@H](Cc2c[nH]c3ccccc23)NC1=O [Compound 30] (Ac-EGEICIWQDWGEHRCT-NH2; disulfide 5-15)	< 100	− (denotes lack of solubility at the given condition, as UV absorbance at 340 nm exceeds 0.1 AU and/or it is visibly turbid or contains particles.)	− (denotes lack of solubility at the given condition, as UV absorbance at 340 nm exceeds 0.1 AU and/or it is visibly turbid or contains particles.)	− (denotes lack of solubility at the given condition, as UV absorbance at 340 nm exceeds 0.1 AU and/or it is visibly turbid or contains particles.)	+ (denotes solubility at the given condition, as determined by UV absorbance being less than 0.1 AU at 340 nm and the sample being clear when manually inspected.)	+ (denotes solubility at the given condition, as determined by UV absorbance being less than 0.1 AU at 340 nm and the sample being clear when manually inspected.)
CC[C@H](C)[C@H](NC(=O)[C@H](C)NC(=O)[C@H](CO)NC(C)=O)C(=O)N[C@H]1CSSC[C@@H](C(=O)N(C)CC(=O)N[C@@H](CCC(=O)O)C(N)=O)NC(=O)[C@H](CCCNC(=N)N)NC(=O)[C@H](Cc2c[nH]cn2)NC(=O)[C@H](CCC(=O)O)NC(=O)CNC(=O)[C@H](Cc2c[nH]c3ccccc23)NC(=O)[C@H](CC(=O)O)NC(=O)[C@H](CCC(N)=O)NC(=O)[C@H](Cc2c[nH]c3ccccc23)NC(=O)[C@H]([C@@H](C)CC)NC1=O [Compound 41] (Ac-SAICIWQDWGEHRC[Sar]E-NH2; disulfide 4-14)	< 250	− (denotes lack of solubility at the given condition, as UV absorbance at 340 nm exceeds 0.1 AU and/or it is visibly turbid or contains particles.)	− (denotes lack of solubility at the given condition, as UV absorbance at 340 nm exceeds 0.1 AU and/or it is visibly turbid or contains particles.)	+ (denotes solubility at the given condition, as determined by UV absorbance being less than 0.1 AU at 340 nm and the sample being clear when manually inspected.)	+ (denotes solubility at the given condition, as determined by UV absorbance being less than 0.1 AU at 340 nm and the sample being clear when manually inspected.)	+ (denotes solubility at the given condition, as determined by UV absorbance being less than 0.1 AU at 340 nm and the sample being clear when manually inspected.)
CC[C@H](C)[C@H](NC(C)=O)C(=O)N[C@H]1CSSC[C@@H](C(=O)N[C@H](C(=O)NCC(=O)N[C@@H](C)C(=O)N[C@@H](CCC(=O)O)C(=O)N[C@@H](CO)C(N)=O)[C@@H](C)O)NC(=O)[C@H](CCCNC(=N)N)NC(=O)[C@H](Cc2c[nH]cn2)NC(=O)[C@H](CCC(=O)O)NC(=O)CNC(=O)[C@H](Cc2c[nH]c3ccccc23)NC(=O)[C@H](CC(=O)O)NC(=O)[C@H](CCC(N)=O)NC(=O)[C@H](Cc2ccc3ccccc3c2)NC(=O)[C@H]([C@@H](C)CC)NC1=O [Compound 52] (Ac-ICI[2Nal]QDWGEHRCTGAES-NH2; disulfide 2-12)	< 100	− (denotes lack of solubility at the given condition, as UV absorbance at 340 nm exceeds 0.1 AU and/or it is visibly turbid or contains particles.)	− (denotes lack of solubility at the given condition, as UV absorbance at 340 nm exceeds 0.1 AU and/or it is visibly turbid or contains particles.)	+ (denotes solubility at the given condition, as determined by UV absorbance being less than 0.1 AU at 340 nm and the sample being clear when manually inspected.)	+ (denotes solubility at the given condition, as determined by UV absorbance being less than 0.1 AU at 340 nm and the sample being clear when manually inspected.)	+ (denotes solubility at the given condition, as determined by UV absorbance being less than 0.1 AU at 340 nm and the sample being clear when manually inspected.)
CC[C@H](C)[C@@H]1NC(=O)[C@@H](NC(=O)[C@@H](NC(=O)[C@H](CCC(=O)O)NC(C)=O)[C@@H](C)CC)CSSC[C@@H](C(=O)N[C@H](C(=O)N[C@@H](CCC(=O)O)C(N)=O)[C@@H](C)O)NC(=O)[C@H](CCCNC(=N)N)NC(=O)[C@H](Cc2c[nH]cn2)NC(=O)[C@H](CCC(=O)O)NC(=O)CNC(=O)[C@H](Cc2c[nH]c3ccccc23)NC(=O)[C@H](CC(=O)O)NC(=O)[C@H](CCC(N)=O)NC(=O)[C@H](Cc2c[nH]c3ccccc23)NC1=O [Compound 33] (Ac-EICIWQDWGEHRCTE-NH2; disulfide 3-13)	< 100	− (denotes lack of solubility at the given condition, as UV absorbance at 340 nm exceeds 0.1 AU and/or it is visibly turbid or contains particles.)	− (denotes lack of solubility at the given condition, as UV absorbance at 340 nm exceeds 0.1 AU and/or it is visibly turbid or contains particles.)	+ (denotes solubility at the given condition, as determined by UV absorbance being less than 0.1 AU at 340 nm and the sample being clear when manually inspected.)	+ (denotes solubility at the given condition, as determined by UV absorbance being less than 0.1 AU at 340 nm and the sample being clear when manually inspected.)	+ (denotes solubility at the given condition, as determined by UV absorbance being less than 0.1 AU at 340 nm and the sample being clear when manually inspected.)
